Results: patent US12649717B2, “Cyanine-derived compound, preparation method therefor, and application thereof” (priority 2020, dated 2026)

Legend:
[1] = test system: HeLa cells; assay: Phototoxicity assay: HeLa cell viability (PI staining) after LED irradiation; conditions: for Cell viability under 1-minute irradiation / Cell viability under 5-minute irradiation / Cell viability under 15-minute irradiation: PI viability counting after 2 hours at 37° C.
Method: HeLa cells were irradiated with corresponding LED light (same light intensity for the same channel) for different periods of time under a widefield fluorescence microscope. The irradiated cells were incubated for 2 hours in a cell incubator at 37° C. Then, the cells were stained with propidium iodide (PI) for viability counting.

[2] = test system: Rat cardiomyocytes; assay: 3D-laser confocal time-series imaging of labeled rat cardiomyocytes; assay type: cell-based; conditions: 250 nM, 10-15 minutes staining
Method: Then, different microscopic imaging experiments were carried out.

CC1(C)C(/C=C/C=C2/N(CCOC(=O)c3ccccc3)c3ccc4ccccc4c3C2(C)C)=[N+](CCOC(=O)c2ccccc2)c2ccc3ccccc3c21.[Br-] [Probe 1-6-1]
Cell viability under 1-minute irradiation [1]: 100% | Cell viability under 5-minute irradiation [1]: 95% | Cell viability under 15-minute irradiation [1]: 25%

CC1=[N+](CCN)c2ccc3ccccc3c2C1(C)C.[Br-] [Probe 1-6]
Cell viability under 1-minute irradiation [1]: 100% | Cell viability under 5-minute irradiation [1]: 99% | Cell viability under 15-minute irradiation [1]: 95% | Phototoxicity relative to commercial dyes (times less phototoxic) ([1]; HeLa cells, versus MTR CMXRos, MTDR (b53 also versus non-optimized compounds of 1-6)): about 5 times | Phototoxicity comparison (in words) ([1]; cell viability after continuous irradiation under high light intensity): lower phototoxicity

ClCc1ccc(C2=c3cc4c5c(c3Oc3c2cc2c6c3CCCN6CCC2)CCC[N+]=5CCC4)cc1.[Cl-] [MitoTracker Red CMXRos]
Cell viability under 1-minute irradiation [1]: 86.9% | Cell viability under 5-minute irradiation [1]: 0% | Cell viability under 15-minute irradiation [1]: 0%

C[N+]1=C(/C=C/C=C/C=C2\N(Cc3ccc(CCl)cc3)c3ccccc3C2(C)C)C(C)(C)c2ccccc21.[Cl-] [MitoTracker Deep Red FM]
Cell viability under 1-minute irradiation [1]: 100% | Cell viability under 5-minute irradiation [1]: 0% | Cell viability under 15-minute irradiation [1]: 0% | Time sequences after which labeled cells violently contracted to death [2]: 8 time sequences
